In ChEMBL document CHEMBL1201862, “PubChem BioAssay data set” (2004):
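Cultured in 96-well plates, cells were exposed to test compound for 48 hours across five concentrations. GI50 marks 50% less growth.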 Activity calls are given as the source filed them. Cut-off read from the data, not from the text of the source: active = GI50 up to about 1.1 µM and inactive = higher.

Experiments:
Test in all cases: DTP human tumour cell line panel, 48 h
IGROV-1 = system: IGROV-1
ACHN = system: ACHN
HL-60 = system: HL-60
NCI-H23 = system: NCI-H23
CCRF-CEM = system: CCRF-CEM
LOX IMVI = system: LOX IMVI
M14 = system: M14
HT-29 = system: HT-29
NCI-H226 = system: NCI-H226
SF-268 = system: SF-268
SW-620 = system: SW-620
SK-MEL-28 = system: SK-MEL-28
SF-295 = system: SF-295
KM12 = system: KM12
Malme-3M = system: Malme-3M

Measured: GI50

O=C1c2ccccc2C(=O)N1CCCOCc1cnc(O)nc1O
inactive: IGROV-1 > 100 µM | ACHN > 100 µM | HL-60 > 100 µM | NCI-H23 > 100 µM | CCRF-CEM > 100 µM | LOX IMVI > 100 µM | M14 > 100 µM | HT-29 > 100 µM | NCI-H226 > 100 µM | SF-268 > 100 µM | SW-620 > 100 µM | SK-MEL-28 > 100 µM | SF-295 > 100 µM | KM12 > 100 µM | Malme-3M > 100 µM

O=C1NC2C(CCO)CC=C[C@H]2c2cc3c(cc21)OCO3 (stereo not given in full)
inactive: IGROV-1 > 100 µM | ACHN > 100 µM | HL-60 > 100 µM | NCI-H23 > 100 µM | CCRF-CEM > 100 µM | LOX IMVI > 100 µM | M14 > 100 µM | HT-29 > 100 µM | NCI-H226 75.3 µM | SF-268 > 100 µM | SW-620 > 100 µM | SK-MEL-28 > 100 µM | SF-295 > 100 µM | KM12 > 100 µM | Malme-3M > 100 µM

CN(C)CCN1N=Nc2cccc3cccc1c23
inactive: IGROV-1 > 100 µM | ACHN 61.1 µM | HL-60 > 46.8 µM | NCI-H23 > 100 µM | CCRF-CEM > 47 µM | LOX IMVI 83.8 µM | M14 > 100 µM | HT-29 45.6 µM | NCI-H226 > 100 µM | SF-268 > 100 µM | SW-620 25.1 µM | SK-MEL-28 > 100 µM | SF-295 > 100 µM | KM12 > 100 µM | Malme-3M > 78.3 µM

CC(C)(C)C1CCC2c3c([nH]c4ncccc34)C3C(=O)N(c4ccccc4)C(=O)C3C2C1 (stereo not given)
inactive: IGROV-1 > 100 µM | ACHN > 100 µM | HL-60 65.9 µM | NCI-H23 > 100 µM | CCRF-CEM 49.7 µM | LOX IMVI > 100 µM | M14 > 100 µM | HT-29 > 100 µM | NCI-H226 > 100 µM | SF-268 > 100 µM | SW-620 > 100 µM | SK-MEL-28 > 100 µM | SF-295 > 100 µM | KM12 > 100 µM | Malme-3M > 100 µM

COC(=O)c1cc(-c2ccc(OC)c(OC)c2)oc1-c1ccc(OC)c(OC)c1
inactive: IGROV-1 45.5 µM | ACHN 35.2 µM | HL-60 64.7 µM | NCI-H23 26.6 µM | CCRF-CEM > 100 µM | LOX IMVI 28.1 µM | M14 55.8 µM | HT-29 35.8 µM | NCI-H226 34.3 µM | SF-268 49.7 µM | SW-620 45.3 µM | SK-MEL-28 57.9 µM | SF-295 23.8 µM | KM12 41.6 µM | Malme-3M 43.7 µM

CSc1ccc(-c2cn3ccsc3n2)c(O)c1
inactive: IGROV-1 > 100 µM | ACHN > 82.6 µM | HL-60 17 µM | NCI-H23 48.3 µM | CCRF-CEM 16.1 µM | LOX IMVI 20 µM | M14 > 59.6 µM | HT-29 83.2 µM | NCI-H226 > 100 µM | SF-268 36.7 µM | SW-620 36.1 µM | SK-MEL-28 > 100 µM | SF-295 39 µM | KM12 > 56.5 µM | Malme-3M > 61.1 µM

O=C(NCCCN1CCN(CCCNC(=O)Nc2cc(Cl)ccc2Cl)CC1)Nc1cc(Cl)ccc1Cl
inactive: IGROV-1 > 100 µM | ACHN > 100 µM | HL-60 34.4 µM | NCI-H23 87.7 µM | CCRF-CEM > 100 µM | LOX IMVI 37 µM | M14 27.4 µM | HT-29 51.4 µM | NCI-H226 > 100 µM | SF-268 87.3 µM | SW-620 > 100 µM | SK-MEL-28 60.3 µM | SF-295 49.3 µM | KM12 > 100 µM | Malme-3M 24.3 µM

CCC(O)CCCCCCCCCCCCCCC(=O)O (stereo not given)
inactive: IGROV-1 > 100 µM | ACHN > 100 µM | HL-60 24.8 µM | NCI-H23 > 100 µM | CCRF-CEM > 100 µM | LOX IMVI > 10 µM | M14 > 100 µM | HT-29 40.8 µM | NCI-H226 > 100 µM | SF-268 > 100 µM | SW-620 > 100 µM | SK-MEL-28 > 100 µM | SF-295 > 100 µM | KM12 61.8 µM | Malme-3M > 100 µM

CN(C)c1ccc(C(C#N)NNC(=O)Cc2ccccc2)cc1 (stereo not given)
inactive: IGROV-1 > 100 µM | ACHN > 100 µM | HL-60 > 100 µM | NCI-H23 > 100 µM | CCRF-CEM > 100 µM | LOX IMVI > 100 µM | M14 > 100 µM | HT-29 > 100 µM | NCI-H226 > 100 µM | SF-268 > 100 µM | SW-620 > 100 µM | SK-MEL-28 > 100 µM | SF-295 > 100 µM | KM12 > 100 µM | Malme-3M > 100 µM

CC(N)C(C)c1ccccc1 (stereo not given)
inactive: IGROV-1 > 100 µM | ACHN > 100 µM | HL-60 > 100 µM | NCI-H23 > 100 µM | CCRF-CEM > 100 µM | LOX IMVI > 100 µM | M14 > 100 µM | HT-29 > 100 µM | NCI-H226 > 100 µM | SF-268 > 100 µM | SW-620 > 100 µM | SK-MEL-28 > 100 µM | SF-295 > 100 µM | KM12 > 100 µM | Malme-3M > 100 µM

Nc1c(-c2ccc(Cl)cc2)[n+]([O-])c2ccccc2[n+]1[O-]
inactive: IGROV-1 > 100 µM | ACHN 57.1 µM | HL-60 32.4 µM | NCI-H23 54.6 µM | CCRF-CEM 54.5 µM | LOX IMVI > 100 µM | M14 > 100 µM | HT-29 > 100 µM | NCI-H226 14.5 µM | SF-268 59.8 µM | SW-620 > 100 µM | SK-MEL-28 76.9 µM | SF-295 87.7 µM | KM12 > 100 µM | Malme-3M > 100 µM

COC(=O)C1=CC(=O)C(C(=O)Nc2ccc(OC)cc2)C(c2ccccc2)O1 (stereo not given)
inactive: IGROV-1 20.5 µM | ACHN 41 µM | HL-60 > 84.3 µM | NCI-H23 21.4 µM | CCRF-CEM > 77.3 µM | LOX IMVI 45.1 µM | M14 33.1 µM | HT-29 > 66.5 µM | NCI-H226 21.9 µM | SF-268 17.8 µM | SW-620 40.5 µM | SK-MEL-28 37.8 µM | SF-295 24 µM | KM12 > 100 µM | Malme-3M > 53 µM

CCCCCCCCCCCCCC/C(C(=O)OC)=C(/O)C(=O)OCC
inactive: IGROV-1 30 µM | ACHN 28.9 µM | HL-60 > 100 µM | NCI-H23 > 100 µM | CCRF-CEM 42.5 µM | LOX IMVI 17.8 µM | M14 20.2 µM | HT-29 36.4 µM | NCI-H226 > 100 µM | SF-268 25.8 µM | SW-620 > 100 µM | SK-MEL-28 24 µM | SF-295 20.6 µM | KM12 19.9 µM | Malme-3M > 100 µM
